From ChEMBL document CHEMBL2401646 (Bioorg Med Chem Lett, 2013)

Key:
[1] = target: T1, Vascular endothelial growth factor receptor 2 (Homo sapiens, UniProt P35968); assay: Inhibition of KDR (unknown origin) autophosphorylation
[2] = Metabolic stability in human liver microsomes assessed as extraction ratio up to 40 mins by LC-MS/MS analysis; format: ADME, Microsome; settings: read-out: ERH
[3] = target: T2, Hepatocyte growth factor receptor (Homo sapiens, UniProt P08581); assay: Inhibition of cMET (unknown origin) using biotinylated poly(Glu,Tyr) as substrate after 60 mins
[4] = Antitumor activity against human U87MG cells xenografted in nu/nu CD1 mouse model assessed as maximum tumor regression at 50 mg/kg, po qd for 14 days; format: functional, U-87MG ATCC
[5] = Antitumor activity against human U87MG cells xenografted in nu/nu CD1 mouse model assessed as tumor growth inhibition at 50 mg/kg, po qd for 14 days; format: functional, U-87MG ATCC; settings: U-87 MG, 336 h, read-out: TGI
[6] = Volume of distribution at steady state in Sprague-Dawley rat at 2 mg/kg, iv; format: ADME, organism-based; parameters: dose 2 mg/kg, route intravenous; settings: in vivo, read-out: Vdss
[7] = Oral bioavailability in Sprague-Dawley rat at 20 mg/kg; format: ADME, organism-based; settings: in vivo
Mus musculus [8] = assay: Toxicity in human SNU5 cells xenografted nu/nu CD1 mouse model assessed as body weigh loss at 200 mg/kg, po qd for 20 days; settings: in vivo, 480 h
[9] = target: T1, Vascular endothelial growth factor receptor 2; assay: Inhibition of KDR autophosphorylation in HUVEC
[10] = Antitumor activity against human U87MG cells xenografted in nu/nu CD1 mouse model assessed as tumor growth inhibition at 100 mg/kg, po bid for 14 days; format: functional, U-87MG ATCC; settings: U-87 MG, 336 h, read-out: TGI
Aurora kinase B = Aurora kinase B (Homo sapiens, UniProt Q96GD4); assay: Inhibition of aurora-B (unknown origin) autophosphorylation
SNU-5 [11] = assay: Antitumor activity against human SNU5 cells xenografted in nu/nu CD1 mouse model assessed as tumor growth inhibition at 50 mg/kg, po qd for 20 days; settings: SNU-5, po, 480 h, read-out: TGI
SNU-5 [12] = assay: Antitumor activity against human SNU5 cells xenografted in nu/nu CD1 mouse model assessed as maximum tumor regression at 200 mg/kg, po qd for 20 days
Mus musculus [13] = assay: Toxicity in human U87MG cells xenografted nu/nu CD1 mouse model assessed as body weigh loss at 200 mg/kg, po qd for 14 days; format: organism-based, U-87MG ATCC; parameters: dose 200 mg/kg, route oral; settings: in vivo, 336 h
[14] = target: T3, ALK tyrosine kinase receptor (Homo sapiens, UniProt Q9UM73); assay: Inhibition of ALK (unknown origin) autophosphorylation
[15] = target: Macrophage-stimulating protein receptor (Homo sapiens, UniProt Q04912); assay: Inhibition of RON (unknown origin) autophosphorylation
[16] = target: T2, Hepatocyte growth factor receptor; assay: Inhibition of cMET in human MKN45 cells assessed as phosphorylated MET levels after 4 hrs; format: cell-based, MKN-45
[17] = target: T3, ALK tyrosine kinase receptor; assay: Inhibition of ALK autophosphorylation in human Karpas-299 cells; format: cell-based
[18] = Protein binding in mouse plasma by equilibrium dialysis; format: ADME, cell-free; settings: read-out: PPB (converted)
[19] = Half life in CD1 mouse at 2 mg/kg, iv; format: ADME, organism-based; parameters: dose 2 mg/kg, route intravenous; settings: in vivo
[20] = Plasma concentration in human MKN45 cells xenografted in mouse at 100 mg/kg, po after 16 hrs; format: ADME, organism-based, MKN-45; parameters: dose 100 mg/kg, route oral
[21] = target: T2, Hepatocyte growth factor receptor; assay: Inhibition of cMET in human MKN45 cells assessed as phosphorylated MET levels after 4 hrs in presence of mouse plasma; format: cell-based, MKN-45
[22] = Antitumor activity against human U87MG cells xenografted in nu/nu CD1 mouse model assessed as tumor growth inhibition at 50 mg/kg, po bid for 14 days; format: functional, U-87MG ATCC; settings: U-87 MG, 336 h, read-out: TGI
Mus musculus [23] = assay: Toxicity in human SNU5 cells xenografted nu/nu CD1 mouse model assessed as body weigh loss at 100 mg/kg, po qd for 20 days; settings: in vivo, 480 h

In the case of `C[C@@H](Oc1c(N)ncc2c(C3=CCN(C(N)=O)CC3)coc12)c1c(Cl)ccc(F)c1Cl`, the IC50 [1] is reported as 1300 nM, the hepatic extraction ratio at 40 min [2] is reported as 0.7 and the IC50 [3] is reported as 26 nM. It also gave an Activity [4] of 0%, an inhibition in vivo at 50 mg/kg [5] of 58% and a Vd [6] of 6.8 L/kg. It also gave a bioavailability [7] of 72%, an Activity (Mus musculus [8]) of 4% and an IC50 [9] of 6100 nM. It also gave an inhibition in vivo at 100 mg/kg [10] of 97%, an IC50 (Aurora kinase B) of 11 nM and an inhibition in vivo at 50 mg/kg (SNU-5 [11]) of 100%. It also gave an Activity (SNU-5 [12]) of 80%, an Activity (Mus musculus [13]) of 0% and an IC50 [14] of 40 nM. For the same compound, the IC50 [15] was 25 nM, the IC50 [16] was 42 nM and the IC50 [17] was 500 nM. The fraction unbound [18] was 0.018, the half-life [19] was 2.9 h and the concentration at 16 h [20] was 520 nM. It also gave an IC50 [21] of 600 nM, an inhibition in vivo at 50 mg/kg [22] of 79% and an Activity (Mus musculus [23]) of 2%.
